{"source": "patent US20220089602A1", "about": "“COMPOUNDS THAT INDUCE FERROPTIC CELL DEATH” (The Board of Trustees of the University of Illinois, priority 2019, published 2022)", "key": {"[1]": {"system": "primary cancer cells from patients with metastatic cancers", "assay": "72 hr cell viability Alamar Blue assay in primary patient-derived cells", "assay_type": "cell-based, human", "conditions": "versus cisplatin, 5-FU, etoposide, PAC-1", "experimental": "Cells were grown at 37° C. under a humidified 5% CO2 atmosphere, in a culture medium consisting of high-glucose (Life Technology) DMEM media for Mia PaCa-2, D54, U87, K7-M2, SK-MEL-5, and 3LL cells or RPMI 1640 for ES-2, HCT 116, MDA-MB-231, A549, T47D, B16-F10, and BT-549 cells or McCoy's 5A media for HT29 cells. All media were supplemented with 10% FBS (Gemini), penicillin (50 IU/ml), streptomycin (50 μg/ml) and glutamine (2 mM) (Cellgro). Primary cells were isolated from pleural effusions of metastatic patients at Carle Foundation Hospital (IRB #15149) following a protocol as described previously (Med. Sci. 2, 70-81, (2014)).\nTo a 384-well plate, 40 μL of 1.25× compound dilution or 1.25% DMSO-containing media was added (final volume of 1% DMSO). Concentrations of compounds tested were 100 μM to 100 nM. On each plate at least 3 technical replicates per compound were performed. Next, 10 μL of a 100,000 cells/mL suspension was added to each well, yielding a final concentration of 1,000 cells/well. To three wells in column 2 was added 1 μL of 10 mM doxorubicin (final concentration of 200 μM) as positive control of cell death. Plates were sealed with gas-permeable seals and incubated at 37° C. for 72 h. […] Fluorescence was read on a Molecular Devices SpectraMax 3 (excitation=555 nm, emission=585 nm, emission cutoff=570 nm). […]"}, "[2]": {"system": "ES-2 cells", "assay": "Confocal microscopy competition with fluorescent analogue P30", "assay_type": "cell-based", "conditions": "pretreatment at 3× IC50 for 30 min, then P30 (5 μM)", "experimental": "ES-2 cells (3×10^5 cell) were attached overnight in […] petri dish plates containing 2 ml of RPMI media. Prior to imaging, cells were stained for 30 min with Mitotracker Red CMXRoss at 100 nM final concentration. Upon media replacement, samples were pre-treated with 3× IC50 of ferroptocide, P27, L1, QQ1 for 30 min followed by treatment with 5 μM P30 for an additional 30 min and a PBS wash. PBS or phenol free media was added to each dish and cells were stained with Hoechst 33342 (1 μg/mL)."}, "[3]": {"biological_target": "T1, thioredoxin (Homo sapiens, UniProt P10599)", "T1 construct": "endogenous in cells", "T1 sequence (P10599 whole entry)": "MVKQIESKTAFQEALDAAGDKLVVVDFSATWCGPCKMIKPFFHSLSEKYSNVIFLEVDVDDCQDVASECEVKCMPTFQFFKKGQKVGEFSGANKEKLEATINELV", "assay": "Thioredoxin activity assay in cell lysate", "assay_type": "cell-based", "conditions": "30 min treatment, HCT 116 cells; versus PMX464 and PX-12 (50 μM)", "experimental": "HCT 116 cells (1×10^6 cells/flask) were treated with DMSO, 10 μM ferroptocide, 50 μM PMX464, or 50 μM PX-12 for 30 min. Cells were harvested by centrifugation, resuspended in the assay buffer and lysed via sonication. For each condition, 20 μg of cell lysate was used to measure the activity thioredoxin activity following manufacturer' protocol (Cayman Chemical, Fluorescent Thioredoxin Activity Assay kit #20039) in a 96-well black-walled plate. For in vitro studies, human thioredoxin (10 μL of 0.2 μM solution) was used in addition to thioredoxin reductase (10 μL of 1.0 μM solution), 1 μl of DMSO, ferroptocide, […], or PX-12 at indicated concentrations, 5 μL of NADPH (diluted according to manufacturer's instructions), and assay buffer to a final volume of 75 μL. The plate was incubated at 37° C. for 30 min followed by immediate addition of 20 μL fluorescent substrate per each well (diluted as instructed in the assay kit). Fluorescence was monitored over 1 hr at 520 nm after excitation at 480 nm in a SpectraMax M3 (Molecular Devices) instrument at 37° C."}}}
{"smiles": "C[C@@H]1CC[C@@]23C[C@H](O)C(=O)[C@@]2(O)[C@]1(C)[C@H](OC(=O)CCl)C[C@@H](C1=CCn2c(=O)n(-c4ccccc4)c(=O)n2C1)[C@@H]3C", "note": "[Compound P18, ferroptocide]", "values": [{"measurement": "killing of primary cancer cells versus chemotherapeutics", "setting": "[1]", "result": "kills these cancer cells better than approved and experimental chemotherapeutics"}, {"measurement": "competition of P30 staining", "setting": "[2]", "result": "competed away"}, {"measurement": "thioredoxin activity in cell lysate", "setting": "[3]", "result": "significantly reduced the activity of thioredoxin"}]}
